{"source": "ChEMBL document CHEMBL4507296", "about": "(2021)", "key": {"[1]": {"system": "Phosphatidylinositol 4,5-bisphosphate 3-kinase catalytic subunit alpha isoform (Homo sapiens), P42336 [E542K]", "sequence (P42336 whole entry E542K, canonical isoform)": "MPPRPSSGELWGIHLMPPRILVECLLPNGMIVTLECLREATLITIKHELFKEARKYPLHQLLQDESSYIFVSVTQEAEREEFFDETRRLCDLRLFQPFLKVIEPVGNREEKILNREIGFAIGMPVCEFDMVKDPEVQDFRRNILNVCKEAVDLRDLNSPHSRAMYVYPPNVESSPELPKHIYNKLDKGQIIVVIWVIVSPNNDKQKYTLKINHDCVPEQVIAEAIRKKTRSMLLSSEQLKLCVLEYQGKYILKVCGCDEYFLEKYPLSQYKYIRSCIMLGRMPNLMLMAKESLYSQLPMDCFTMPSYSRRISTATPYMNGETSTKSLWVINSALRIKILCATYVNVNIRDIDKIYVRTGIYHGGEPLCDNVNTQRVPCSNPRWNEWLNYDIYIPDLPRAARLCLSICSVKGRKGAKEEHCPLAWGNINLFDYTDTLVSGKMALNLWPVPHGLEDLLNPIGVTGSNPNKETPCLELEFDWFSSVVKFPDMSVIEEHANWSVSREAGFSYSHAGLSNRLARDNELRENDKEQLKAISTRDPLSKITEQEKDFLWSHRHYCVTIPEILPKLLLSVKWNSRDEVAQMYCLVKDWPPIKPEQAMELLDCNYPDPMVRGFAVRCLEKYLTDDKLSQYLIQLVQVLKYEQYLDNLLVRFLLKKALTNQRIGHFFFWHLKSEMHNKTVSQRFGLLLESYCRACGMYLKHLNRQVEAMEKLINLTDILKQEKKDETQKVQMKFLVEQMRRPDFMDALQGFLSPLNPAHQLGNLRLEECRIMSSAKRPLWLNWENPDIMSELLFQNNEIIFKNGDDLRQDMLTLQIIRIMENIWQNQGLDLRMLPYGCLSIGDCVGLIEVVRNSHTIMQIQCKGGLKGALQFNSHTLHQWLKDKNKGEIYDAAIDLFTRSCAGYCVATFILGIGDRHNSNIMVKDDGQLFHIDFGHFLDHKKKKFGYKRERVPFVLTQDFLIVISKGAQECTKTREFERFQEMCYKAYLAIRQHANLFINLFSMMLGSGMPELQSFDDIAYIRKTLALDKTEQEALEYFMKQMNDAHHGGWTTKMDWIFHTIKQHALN", "conditions": "Compound concentration 1000.0 nM"}, "[2]": {"target": "Serine/threonine-protein kinase mTOR (Homo sapiens) (UniProt P42345)", "conditions": "Compound concentration 1000.0 nM"}, "[3]": {"target": "Mu-type opioid receptor (Homo sapiens) (UniProt P35372)", "conditions": "Compound concentration 10.0 uM"}, "[4]": {"target": "Cyclin-G-associated kinase (Homo sapiens) (UniProt O14976)", "conditions": "Compound concentration 1000.0 nM"}, "[5]": {"target": "Myosin light chain kinase, smooth muscle (Homo sapiens) (UniProt Q15746)", "conditions": "Compound concentration 1000.0 nM"}, "[6]": {"target": "Non-receptor tyrosine-protein kinase TYK2 (Homo sapiens) (UniProt P29597)", "conditions": "Compound concentration 1000.0 nM"}, "[7]": {"target": "Serine/threonine-protein kinase WNK2 (Homo sapiens) (UniProt Q9Y3S1)", "sequence (Q9Y3S1 whole entry)": "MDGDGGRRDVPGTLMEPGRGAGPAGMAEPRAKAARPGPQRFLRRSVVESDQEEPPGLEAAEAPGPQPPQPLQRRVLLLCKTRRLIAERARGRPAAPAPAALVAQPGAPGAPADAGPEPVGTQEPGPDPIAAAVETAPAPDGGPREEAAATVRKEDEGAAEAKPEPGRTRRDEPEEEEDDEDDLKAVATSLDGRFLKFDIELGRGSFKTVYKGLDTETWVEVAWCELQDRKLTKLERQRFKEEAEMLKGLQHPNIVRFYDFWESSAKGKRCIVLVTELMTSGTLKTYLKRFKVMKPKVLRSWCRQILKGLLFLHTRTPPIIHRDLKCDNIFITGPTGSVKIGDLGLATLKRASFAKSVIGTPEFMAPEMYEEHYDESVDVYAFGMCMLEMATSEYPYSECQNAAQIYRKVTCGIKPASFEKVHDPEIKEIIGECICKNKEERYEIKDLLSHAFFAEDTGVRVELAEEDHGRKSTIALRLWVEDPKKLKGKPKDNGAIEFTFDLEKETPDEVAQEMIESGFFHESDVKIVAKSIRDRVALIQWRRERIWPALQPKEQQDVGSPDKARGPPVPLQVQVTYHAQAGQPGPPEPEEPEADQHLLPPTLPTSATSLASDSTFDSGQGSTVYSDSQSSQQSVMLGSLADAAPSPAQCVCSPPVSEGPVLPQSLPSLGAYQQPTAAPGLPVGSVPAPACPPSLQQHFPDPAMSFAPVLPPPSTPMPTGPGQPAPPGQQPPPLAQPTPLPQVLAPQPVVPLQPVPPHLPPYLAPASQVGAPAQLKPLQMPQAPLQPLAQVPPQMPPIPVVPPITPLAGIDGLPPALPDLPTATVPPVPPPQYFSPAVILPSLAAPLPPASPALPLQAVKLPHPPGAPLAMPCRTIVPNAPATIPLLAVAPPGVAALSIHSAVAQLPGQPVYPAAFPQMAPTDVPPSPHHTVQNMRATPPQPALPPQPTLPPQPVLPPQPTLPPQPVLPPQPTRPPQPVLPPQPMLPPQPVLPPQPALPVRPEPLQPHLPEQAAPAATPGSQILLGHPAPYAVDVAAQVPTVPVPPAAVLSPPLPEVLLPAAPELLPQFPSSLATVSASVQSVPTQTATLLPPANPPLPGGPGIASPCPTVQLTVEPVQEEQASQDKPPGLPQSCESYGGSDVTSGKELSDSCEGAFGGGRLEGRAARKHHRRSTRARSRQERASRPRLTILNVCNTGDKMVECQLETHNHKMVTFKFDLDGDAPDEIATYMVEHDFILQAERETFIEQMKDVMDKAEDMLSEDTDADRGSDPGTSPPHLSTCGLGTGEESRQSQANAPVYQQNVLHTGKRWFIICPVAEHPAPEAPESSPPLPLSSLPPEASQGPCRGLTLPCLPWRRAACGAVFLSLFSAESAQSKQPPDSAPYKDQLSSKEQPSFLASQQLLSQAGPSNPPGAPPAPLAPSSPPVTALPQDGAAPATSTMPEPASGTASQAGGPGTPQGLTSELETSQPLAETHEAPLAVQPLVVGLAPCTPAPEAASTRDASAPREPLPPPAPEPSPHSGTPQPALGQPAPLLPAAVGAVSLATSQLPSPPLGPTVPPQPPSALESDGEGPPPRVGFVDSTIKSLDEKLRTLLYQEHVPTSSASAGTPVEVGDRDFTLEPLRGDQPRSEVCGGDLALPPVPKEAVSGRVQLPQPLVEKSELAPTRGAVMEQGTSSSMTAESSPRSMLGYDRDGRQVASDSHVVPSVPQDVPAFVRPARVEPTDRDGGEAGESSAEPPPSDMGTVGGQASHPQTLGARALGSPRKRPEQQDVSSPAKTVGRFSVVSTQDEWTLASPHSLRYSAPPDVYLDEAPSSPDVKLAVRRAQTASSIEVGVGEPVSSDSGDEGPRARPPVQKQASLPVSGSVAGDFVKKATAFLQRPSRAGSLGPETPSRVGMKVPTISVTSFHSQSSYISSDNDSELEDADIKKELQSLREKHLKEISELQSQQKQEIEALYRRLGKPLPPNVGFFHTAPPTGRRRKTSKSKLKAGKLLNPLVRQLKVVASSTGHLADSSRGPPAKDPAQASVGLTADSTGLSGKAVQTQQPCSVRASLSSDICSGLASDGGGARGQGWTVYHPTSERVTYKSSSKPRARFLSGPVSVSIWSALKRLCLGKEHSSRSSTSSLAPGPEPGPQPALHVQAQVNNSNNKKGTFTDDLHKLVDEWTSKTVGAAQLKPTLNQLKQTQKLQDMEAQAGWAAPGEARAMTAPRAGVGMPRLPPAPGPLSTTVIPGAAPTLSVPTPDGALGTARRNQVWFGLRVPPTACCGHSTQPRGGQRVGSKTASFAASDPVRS", "conditions": "Compound concentration 1000.0 nM"}, "[8]": {"target": "Serine/threonine-protein kinase 32B (Homo sapiens) (UniProt Q9NY57)", "conditions": "Compound concentration 1000.0 nM"}, "[9]": {"target": "Receptor-type tyrosine-protein kinase FLT3 (Homo sapiens) (UniProt P36888)", "conditions": "Compound concentration 1000.0 nM"}, "[10]": {"target": "Ephrin type-A receptor 4 (Homo sapiens) (UniProt P54764)", "conditions": "Compound concentration 1000.0 nM"}, "[11]": {"target": "Calcium/calmodulin-dependent protein kinase kinase 2 (Homo sapiens) (UniProt Q96RR4)", "conditions": "Compound concentration 1000.0 nM"}, "[12]": {"target": "Serine/threonine-protein kinase Nek7 (Homo sapiens) (UniProt Q8TDX7)", "conditions": "Compound concentration 1000.0 nM"}, "[13]": {"target": "Cyclin-dependent kinase 18 (Homo sapiens) (UniProt Q07002)", "conditions": "Compound concentration 1000.0 nM"}, "[14]": {"target": "Interleukin-1 receptor-associated kinase 4 (Homo sapiens) (UniProt Q9NWZ3)", "conditions": "Compound concentration 1000.0 nM"}, "[15]": {"system": "Phosphatidylinositol 4,5-bisphosphate 3-kinase catalytic subunit alpha isoform (Homo sapiens), P42336 [M1043I]", "conditions": "Compound concentration 1000.0 nM"}, "[16]": {"target": "Mitogen-activated protein kinase kinase kinase kinase 1 (Homo sapiens) (UniProt Q92918)", "conditions": "Compound concentration 1000.0 nM"}, "[17]": {"target": "Mitogen-activated protein kinase 8 (Homo sapiens) (UniProt P45983)", "conditions": "Compound concentration 1000.0 nM"}, "[18]": {"target": "Phosphatidylinositol 4,5-bisphosphate 3-kinase catalytic subunit alpha isoform (Homo sapiens) (UniProt P42336)", "sequence (P42336 whole entry, canonical isoform)": "as the sequence (P42336 whole entry E542K, canonical isoform) above, with K542E counted along it", "conditions": "Compound concentration 1000.0 nM"}, "[19]": {"target": "Serine/threonine-protein kinase 17B (Homo sapiens) (UniProt O94768)", "conditions": "Compound concentration 1000.0 nM"}, "[20]": {"system": "Tyrosine-protein kinase ABL1 (Homo sapiens), P00519 [H396P]", "conditions": "Compound concentration 1000.0 nM"}, "[21]": {"target": "Serine/threonine-protein kinase MRCK beta (Homo sapiens) (UniProt Q9Y5S2)", "conditions": "Compound concentration 1000.0 nM"}, "[22]": {"target": "Interleukin-1 receptor-associated kinase 3 (Homo sapiens) (UniProt Q9Y616)", "conditions": "Compound concentration 1000.0 nM"}, "[23]": {"target": "High affinity choline transporter 1 (Homo sapiens) (UniProt Q9GZV3)", "test": "Choline transporter 1 (human) CEREP ligand profiling", "conditions": "Compound concentration 10.0 uM"}, "[24]": {"target": "Proto-oncogene tyrosine-protein kinase ROS (Homo sapiens) (UniProt P08922)", "conditions": "Compound concentration 1000.0 nM"}, "[25]": {"target": "Mitogen-activated protein kinase kinase kinase 3 (Homo sapiens) (UniProt Q99759)", "sequence (Q99759 whole entry)": "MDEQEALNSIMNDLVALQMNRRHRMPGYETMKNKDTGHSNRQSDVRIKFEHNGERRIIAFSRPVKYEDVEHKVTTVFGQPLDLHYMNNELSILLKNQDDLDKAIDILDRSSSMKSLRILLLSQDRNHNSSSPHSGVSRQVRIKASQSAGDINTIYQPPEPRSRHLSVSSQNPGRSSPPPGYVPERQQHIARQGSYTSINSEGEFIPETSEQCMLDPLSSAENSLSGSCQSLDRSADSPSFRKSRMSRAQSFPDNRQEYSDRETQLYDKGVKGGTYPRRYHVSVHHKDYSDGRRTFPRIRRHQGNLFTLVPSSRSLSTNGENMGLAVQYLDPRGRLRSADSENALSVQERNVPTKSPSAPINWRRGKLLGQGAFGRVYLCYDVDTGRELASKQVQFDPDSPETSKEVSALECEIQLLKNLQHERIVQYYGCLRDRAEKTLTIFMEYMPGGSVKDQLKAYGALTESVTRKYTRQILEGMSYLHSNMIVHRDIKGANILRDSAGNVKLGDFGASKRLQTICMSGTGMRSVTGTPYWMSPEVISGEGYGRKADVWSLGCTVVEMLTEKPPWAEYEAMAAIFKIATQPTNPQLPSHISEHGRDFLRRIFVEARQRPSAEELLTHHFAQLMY", "conditions": "Compound concentration 1000.0 nM"}, "[26]": {"target": "Serine/threonine-protein kinase 36 (Homo sapiens) (UniProt Q9NRP7)", "conditions": "Compound concentration 1000.0 nM"}, "[27]": {"target": "D(1B) dopamine receptor (Homo sapiens) (UniProt P21918)", "conditions": "Compound concentration 10.0 uM"}, "[28]": {"target": "ALK tyrosine kinase receptor (Homo sapiens) (UniProt Q9UM73)", "conditions": "Compound concentration 1000.0 nM"}, "[29]": {"target": "Mast/stem cell growth factor receptor Kit (Homo sapiens) (UniProt P10721)", "conditions": "Compound concentration 1000.0 nM"}, "[30]": {"target": "TRAF2 and NCK-interacting protein kinase (Homo sapiens) (UniProt Q9UKE5)", "conditions": "Compound concentration 1000.0 nM"}, "[31]": {"target": "Dual specificity mitogen-activated protein kinase kinase 6 (Homo sapiens) (UniProt P52564)", "sequence (P52564 whole entry)": "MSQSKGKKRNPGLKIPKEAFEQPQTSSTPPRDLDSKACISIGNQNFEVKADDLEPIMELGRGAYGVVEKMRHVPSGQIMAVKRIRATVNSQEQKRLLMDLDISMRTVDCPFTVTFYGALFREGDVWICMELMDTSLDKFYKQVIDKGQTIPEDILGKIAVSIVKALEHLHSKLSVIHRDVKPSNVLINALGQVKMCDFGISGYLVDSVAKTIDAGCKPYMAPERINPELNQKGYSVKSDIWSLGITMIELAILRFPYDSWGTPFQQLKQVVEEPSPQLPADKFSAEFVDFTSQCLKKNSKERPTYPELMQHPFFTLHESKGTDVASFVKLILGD", "conditions": "Compound concentration 1000.0 nM"}, "[32]": {"system": "Epidermal growth factor receptor (Homo sapiens), P00533 [UNDEFINED MUTATION]", "conditions": "Compound concentration 1000.0 nM"}, "[33]": {"target": "Fibroblast growth factor receptor 1 (Homo sapiens) (UniProt P11362)", "conditions": "Compound concentration 1000.0 nM"}, "[34]": {"target": "Serine/threonine-protein kinase 10 (Homo sapiens) (UniProt O94804)", "conditions": "Compound concentration 1000.0 nM"}, "[35]": {"system": "Hepatocyte growth factor receptor (Homo sapiens), P08581 [M1250T]", "conditions": "Compound concentration 1000.0 nM"}, "[36]": {"system": "Tyrosine-protein kinase ABL1 (Homo sapiens), P00519 [Q252H]", "conditions": "Compound concentration 1000.0 nM"}, "[37]": {"target": "Ribosomal protein S6 kinase alpha-1 (Homo sapiens) (UniProt Q15418)", "conditions": "Compound concentration 1000.0 nM"}, "[38]": {"target": "High affinity nerve growth factor receptor (Homo sapiens) (UniProt P04629)", "conditions": "Compound concentration 1000.0 nM"}, "[39]": {"target": "Glycogen synthase kinase-3 beta (Homo sapiens) (UniProt P49841)", "conditions": "Compound concentration 1000.0 nM"}, "[40]": {"target": "Inhibitor of nuclear factor kappa-B kinase subunit epsilon (Homo sapiens) (UniProt Q14164)", "conditions": "Compound concentration 1000.0 nM"}, "[41]": {"target": "Ribosomal protein S6 kinase alpha-2 (Homo sapiens) (UniProt Q15349)", "sequence (Q15349 whole entry)": "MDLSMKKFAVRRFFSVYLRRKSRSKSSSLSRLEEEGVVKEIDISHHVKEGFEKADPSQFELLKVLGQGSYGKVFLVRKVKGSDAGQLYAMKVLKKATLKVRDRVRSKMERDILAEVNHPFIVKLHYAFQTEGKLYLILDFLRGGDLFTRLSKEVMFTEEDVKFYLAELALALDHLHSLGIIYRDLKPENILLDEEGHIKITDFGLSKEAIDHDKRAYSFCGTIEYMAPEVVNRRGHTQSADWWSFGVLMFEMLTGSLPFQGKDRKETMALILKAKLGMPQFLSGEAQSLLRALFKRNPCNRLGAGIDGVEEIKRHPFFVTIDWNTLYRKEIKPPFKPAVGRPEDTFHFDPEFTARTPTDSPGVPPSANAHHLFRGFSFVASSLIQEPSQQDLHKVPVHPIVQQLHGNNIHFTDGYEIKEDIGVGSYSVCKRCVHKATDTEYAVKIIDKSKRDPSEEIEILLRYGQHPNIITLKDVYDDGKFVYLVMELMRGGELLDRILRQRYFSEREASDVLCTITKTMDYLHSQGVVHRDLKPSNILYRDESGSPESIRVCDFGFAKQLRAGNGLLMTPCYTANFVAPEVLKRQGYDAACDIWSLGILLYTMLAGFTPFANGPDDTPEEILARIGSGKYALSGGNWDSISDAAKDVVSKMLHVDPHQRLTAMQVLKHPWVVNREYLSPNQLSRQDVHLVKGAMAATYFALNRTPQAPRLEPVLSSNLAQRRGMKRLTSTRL", "conditions": "Compound concentration 1000.0 nM"}, "[42]": {"target": "Sigma intracellular receptor 2 (Homo sapiens) (UniProt Q5BJF2)", "conditions": "Compound concentration 10.0 uM"}}}
{"smiles": "C[C@H](c1ccc(F)cc1)N(Cc1cccc(C(=O)O)c1)C(=O)c1cnc2ccccc2c1", "note": "[PF-05105679]", "values": [{"measurement": "residual activity", "setting": "[1]", "value": 49, "unit": "%"}, {"measurement": "residual activity", "setting": "[2]", "value": 93, "unit": "%"}, {"measurement": "inhibition", "setting": "[3]", "value": 1.23, "unit": "%"}, {"measurement": "residual activity", "setting": "[4]", "value": 98, "unit": "%"}, {"measurement": "residual activity", "setting": "[5]", "value": 76, "unit": "%"}, {"measurement": "residual activity", "setting": "[6]", "value": 100, "unit": "%"}, {"measurement": "residual activity", "setting": "[7]", "value": 96, "unit": "%"}, {"measurement": "residual activity", "setting": "[8]", "value": 97, "unit": "%"}, {"measurement": "residual activity", "setting": "[9]", "value": 100, "unit": "%"}, {"measurement": "residual activity", "setting": "[10]", "value": 92, "unit": "%"}, {"measurement": "residual activity", "setting": "[11]", "value": 95, "unit": "%"}, {"measurement": "residual activity", "setting": "[12]", "value": 100, "unit": "%"}, {"measurement": "residual activity", "setting": "[13]", "value": 100, "unit": "%"}, {"measurement": "residual activity", "setting": "[14]", "value": 95, "unit": "%"}, {"measurement": "residual activity", "setting": "[15]", "value": 100, "unit": "%"}, {"measurement": "residual activity", "setting": "[16]", "value": 100, "unit": "%"}, {"measurement": "residual activity", "setting": "[17]", "value": 100, "unit": "%"}, {"measurement": "residual activity", "setting": "[18]", "value": 100, "unit": "%"}, {"measurement": "residual activity", "setting": "[19]", "value": 80, "unit": "%"}, {"measurement": "residual activity", "setting": "[20]", "value": 100, "unit": "%"}, {"measurement": "residual activity", "setting": "[21]", "value": 94, "unit": "%"}, {"measurement": "residual activity", "setting": "[22]", "value": 100, "unit": "%"}, {"measurement": "inhibition", "setting": "[23]", "value": 22, "unit": "%"}, {"measurement": "residual activity", "setting": "[24]", "value": 100, "unit": "%"}, {"measurement": "residual activity", "setting": "[25]", "value": 100, "unit": "%"}, {"measurement": "residual activity", "setting": "[26]", "value": 100, "unit": "%"}, {"measurement": "inhibition", "setting": "[27]", "value": -1.69, "unit": "%"}, {"measurement": "residual activity", "setting": "[28]", "value": 94, "unit": "%"}, {"measurement": "residual activity", "setting": "[29]", "value": 100, "unit": "%"}, {"measurement": "residual activity", "setting": "[30]", "value": 95, "unit": "%"}, {"measurement": "residual activity", "setting": "[31]", "value": 100, "unit": "%"}, {"measurement": "residual activity", "setting": "[32]", "value": 100, "unit": "%"}, {"measurement": "residual activity", "setting": "[33]", "value": 100, "unit": "%"}, {"measurement": "residual activity", "setting": "[34]", "value": 89, "unit": "%"}, {"measurement": "residual activity", "setting": "[35]", "value": 93, "unit": "%"}, {"measurement": "residual activity", "setting": "[36]", "value": 89, "unit": "%"}, {"measurement": "residual activity", "setting": "[37]", "value": 100, "unit": "%"}, {"measurement": "residual activity", "setting": "[38]", "value": 100, "unit": "%"}, {"measurement": "residual activity", "setting": "[39]", "value": 100, "unit": "%"}, {"measurement": "residual activity", "setting": "[40]", "value": 79, "unit": "%"}, {"measurement": "residual activity", "setting": "[41]", "value": 100, "unit": "%"}, {"measurement": "inhibition", "setting": "[42]", "value": 3.36, "unit": "%"}]}
